In BindingDB's records for doi:10.1016/j.bioorg.2014.08.007 (Central University of Punjab, 2014) one finds IC50 data, which are given here for four molecules.

The IC50 is the concentration needed to halve the response being measured.

SMILES strings stand for the structures.

The target of the experiment is Xanthine dehydrogenase/oxidase (Bos taurus, UniProt P80457). The experiment can be described thus: XO inhibitory assay. To be noted: pH 7.5; 25 °C. The method, then: The reaction mixture contained 1.5 mL of 50 mM potassium phosphate buffer (pH 7.5), 1 mL test sample solutions (5, 10, 25, 50, and 100 µM) was dissolved in DMSO, 0.5 mL of XO enzyme solution (0.2 units/mL of xanthine oxidase in phosphate buffer). The reaction mixture was pre-incubated at room temperature for 15 min, followed by the addition of 1 mL of substrate solution (0.10 mM of xanthine). The mixture was further incubated at room temperature for 30 min and stopped with the addition of 1 mL of 1 M HCl.
Chain of Xanthine dehydrogenase/oxidase (P80457 whole entry): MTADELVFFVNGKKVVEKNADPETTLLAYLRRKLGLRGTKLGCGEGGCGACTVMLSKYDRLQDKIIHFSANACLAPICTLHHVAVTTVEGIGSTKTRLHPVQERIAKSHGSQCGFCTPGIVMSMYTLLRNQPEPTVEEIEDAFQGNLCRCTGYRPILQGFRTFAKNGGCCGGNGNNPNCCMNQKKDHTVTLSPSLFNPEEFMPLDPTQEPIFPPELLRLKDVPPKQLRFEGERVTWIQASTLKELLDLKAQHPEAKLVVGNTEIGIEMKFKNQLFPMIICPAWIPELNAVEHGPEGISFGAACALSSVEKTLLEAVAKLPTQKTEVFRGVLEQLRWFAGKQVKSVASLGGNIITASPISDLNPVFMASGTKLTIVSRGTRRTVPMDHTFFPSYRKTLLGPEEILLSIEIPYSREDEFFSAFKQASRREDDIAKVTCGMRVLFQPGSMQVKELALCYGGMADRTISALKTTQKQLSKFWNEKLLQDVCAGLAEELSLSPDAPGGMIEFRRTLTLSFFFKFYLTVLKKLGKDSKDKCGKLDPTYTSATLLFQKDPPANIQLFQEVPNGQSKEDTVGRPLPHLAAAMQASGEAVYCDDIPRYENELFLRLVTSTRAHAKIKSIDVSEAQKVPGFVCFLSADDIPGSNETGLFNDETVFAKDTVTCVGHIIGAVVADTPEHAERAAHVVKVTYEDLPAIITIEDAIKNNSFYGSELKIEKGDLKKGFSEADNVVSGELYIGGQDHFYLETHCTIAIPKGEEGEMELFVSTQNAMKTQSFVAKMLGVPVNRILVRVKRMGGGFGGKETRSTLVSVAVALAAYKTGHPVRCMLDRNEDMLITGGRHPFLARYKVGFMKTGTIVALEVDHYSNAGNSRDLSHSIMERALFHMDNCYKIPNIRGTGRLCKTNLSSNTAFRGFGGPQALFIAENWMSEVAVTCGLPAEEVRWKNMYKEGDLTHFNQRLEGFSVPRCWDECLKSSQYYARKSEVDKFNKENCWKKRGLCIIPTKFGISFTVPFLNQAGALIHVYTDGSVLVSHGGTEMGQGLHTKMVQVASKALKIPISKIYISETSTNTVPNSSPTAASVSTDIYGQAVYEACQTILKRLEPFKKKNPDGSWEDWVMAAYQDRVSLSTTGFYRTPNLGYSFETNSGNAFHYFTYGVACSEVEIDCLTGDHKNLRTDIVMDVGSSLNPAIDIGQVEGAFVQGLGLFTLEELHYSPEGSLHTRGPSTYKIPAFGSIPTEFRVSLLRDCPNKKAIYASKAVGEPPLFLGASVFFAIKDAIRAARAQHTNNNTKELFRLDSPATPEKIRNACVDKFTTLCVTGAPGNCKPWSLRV
Take `Oc1c(Cl)cc(Cl)cc1C1Nc2ccccc2-c2cc(-c3ccccc3)nn21` (centres undefined) [2,4‐dichloro‐6‐{2‐phenyl‐5H,6H‐pyrazolo[1,5‐ c]quinazolin‐5‐yl}phenol (6g)]: the IC50 worked out at 11 µM.

The molecule `COc1ccc(C2Nc3ccccc3-c3cc(-c4ccccc4)nn32)cc1OC` (centres undefined) [5‐(3,4‐dimethoxyphenyl)‐2‐phenyl‐5H,6H‐ pyrazolo[1,5‐c]quinazoline (6e)] displayed an IC50 of 43.6 µM.

Take `Nc1ccccc1-c1cc(-c2ccccc2)n[nH]1`: the IC50 was found to be 41.7 µM.

Molecule `O=[N+]([O-])c1cccc(C2Nc3ccccc3-c3cc(-c4ccccc4)nn32)c1` (centres undefined) [5‐(3‐nitrophenyl)‐2‐phenyl‐5H,6H‐pyrazolo[1,5‐ c]quinazoline (6h)] had an IC50 of 20.9 µM.
